Measurements published in patent publication US20230293514A1, “INJECTABLE DEPOT FORMULATION COMPRISING CARIPRAZINE FREE BASE PARTICLES” (Anxo Pharmaceutical Co., Ltd., priority 2022, published 2023).
In brackets after ≈: the same amount, converted by molar mass. Counter-ions that a name gives are not always drawn.

Experiments:
[1] = physchem; settings: water, thermodynamic from solid
[2] = plasma vs pH 7.6 buffer simulating muscular tissue; cited from earlier work

Row | SMILES | solubility [1] [µg/mL] | solubilization enhancement in plasma compared to pH 7.6 buffer [2] [fold]
1 | CN(C)C(=O)NC1CCC(CCN2CCN(c3cccc(Cl)c3Cl)CC2)CC1 (stereo in doubt) [cariprazine hydrochloride salt, trans-N-{4-[2-[4-(2,3-dichlorophenyl)piperazine-1-yl]ethyl]cyclohexyl}-N′, N′-dimethylurea hydrochloride] | > 5000 | 
2 | CN(C)C(=O)N[C@H]1CC[C@H](CCN2CCN(c3cccc(Cl)c3Cl)CC2)CC1 [cariprazine free base, cariprazine] | 6 (≈ 14 µM) | 
3 | Cc1cc2c(s1)Nc1ccccc1N=C2N1CCN(C)CC1.O.O=C(O)c1cc2ccccc2c(Cc2c(O)c(C(=O)O)cc3ccccc23)c1O [olanzapine pamoate] |  | 18
